Three molecules from US9791456B2, “Method for measuring ATR inhibition mediated increases in DNA damage” (Vertex Pharmaceuticals Incorporated, priority 2012, dated 2017) can be followed below.

Bounds are passed on as bounds.

Common to all, as to format: cell-based
In assay [1] the target is T1, ATR (Mus musculus, UniProt Q9JKK8).
T1 construct: Whole human or mouse blood was collected in heparinised tubes; endogenous in cells; host or cells: lymphocytes in whole mouse blood ex vivo
Kind of assay: ATR inhibition in whole mouse blood ex vivo: 4-nitroquinoline stimulated H2AX phosphorylation in lymphocytes, flow cytometry. For orientation: In flow cytometry, cells or beads pass a laser one at a time.
Experimental: The samples were mixed by agitation, incubated for 10 min at 37° C. and stimulated with 62 uM (human) or 124 uM (mouse) 4-nitroquinoline for 1 h at 37° C. The samples were then fixed and red blood cells were lysed using Lyse/Fix Buffer (BD) for 5-10 min and white blood cells were collected by centrifugation according to the manufacturer's instructions. The samples were then transferred into 96 well round bottom plates and permeabilised using Triton X-100 according to method i). H2AX phosphorylation was then analysed by flow cytometry according to method i) with selection of lymphocytes using either standard scatterplot gating or CD3 staining. For specific analysis of H2AX phosphorylation in CD3 positive lymphocytes, cells were stained with 1:2.5 diluted PE-conjugated anti-human CD3 (BD) (human) and 1:50 diluted APC-conjugated anti-mouse CD3 (BD) (mouse) in place of propidium iodide and analyses of P-H2AX were performed on the CD3-positive population.

Assay [2] addresses T2, ATR (Homo sapiens, UniProt Q13535).
T2 construct: PBMCs were purified from fresh whole human blood; endogenous in cells; host or cells: human PBMCs / lymphocytes from fresh whole blood of healthy volunteers
Kind of assay: ATR inhibition in PBMCs after treatment of human whole blood with 4-nitroquinoline, immunofluorescence. The note with it: 240 μM 4-nitroquinoline 1 and 2 hr, 1 or 10 μM compound.
Experimental: Blood from healthy volunteers was collected by venepuncture into EDTA-coated blood collection tubes. […] Following 1 or 2 hours incubation (as indicated) at 37° C. the blood mixture was transferred into 15 ml falcon tubes containing 2 mls FICOLL-PAQUE PLUS™ and the PBMCs separated using centrifugation through a FICOLL-PAQUE PLUS™ separation gradient. PBMCs were collected and washed twice using 10 mls PBS and resuspended in 1 ml PBS. PBMCs were counted using a haemocytometer and 1×10^5 PBMCs were centrifuged onto microscope slides using a CYTOSPIN 2™ centrifuge (Shandon) for 5 minutes at 450 rpm. Cells were fixed using 4% (w/v) paraformaldehyde for 20 minutes and permeablised using 0.5% (v/v) Triton-X-100 for 30 minutes. […] These were detected using the appropriate secondary antibodies diluted in 1% (w/v) BSA in PBS: anti-rabbit AlexaFluor 546 (Invitrogen, 1:1000) and anti-mouse AlexaFluor 546 (Invitrogen, 1:1000). […] Mean nuclear fluorescence for at least 50 nuclei was measured using Image) software (National Institutes of Health, USA) and the data analysed using GraphPad Prism software version 6.0.

In assay [3] the test system is γH2AX in MCF7 cells. Description: UV induced phosphorylation of H2AX in MCF7 cells over time, immunofluorescence. To be noted: 20 J/m^2 UV. The procedure: (§1) Coverslips were sterilised in methanol and placed in the bottom of a 6-well culture dish. 2×10^5 MCF7 cells were seeded into each well of a 6-well culture dish in culture medium (RPMI-1640 with 10% FBS and 1% penicillin and streptomycin) and allowed to adhere for 24 hours. […] Cells were exposed to 20 J/m^2 UV using a […]-2400' (Stratagene). Cells were incubated at 37° C. for 0.5, 1 and 3 hours at which points they were washed with 2 mls PBS and fixed. Cells were fixed using 4% (w/v) paraformaldehyde for 20 minutes at room temperature and permeablised using 0.5% (v/v) Triton-X-100 for 30 minutes at room temperature. […] These were detected using the appropriate secondary antibodies diluted in 1% (w/v) BSA in PBS for 1 hour at room temperature protected from light: anti-rabbit AlexaFluor 546 (Invitrogen, 1:1000) or anti-mouse AlexaFluor 546 (Invitrogen, 1:1000). Coverslips were washed three times for 10 minutes in PBS after incubation with each antibody. DNA was stained using […] with DAPI (Vector Laboratories). Images were captured using a Zeiss LSM 700 confocal microscope (Zeiss) with Zen 2009 software (Zeiss) using and ×40 lens and wavelengths of 405 nm and 561 nm. Mean nuclear fluorescence for at least 50 nuclei was measured using Image) software (National Institutes of Health, USA) and the data analysed using GraphPad Prism software version 6.0.

For assay [4], the system named is pChk1^Ser345 in MCF7 cells. Description: UV induced phosphorylation of Chk1 in MCF7 cells over time, immunofluorescence. The note with it: 20 J/m^2 UV. The procedure:
as §1

The target in assay [5] is T2, ATR. Kind of assay: ATR inhibition in PBMCs after treatment of human whole blood with UV, immunofluorescence. The note with it: 50 J/m^2 UV, 10 μM VE-821.
Experimental: Blood from healthy volunteers was collected by venepuncture into EDTA-coated blood collection tubes. […] Following 1 hour incubation at 37° C. and 5% CO2, blood was exposed to 50 J/m^2 UV light. Following 1 hour further incubation the blood mixture was transferred into 15 ml falcon tubes containing 2 mls FICOLL-PAQUE PLUS™ and the PBMCs separated using centrifugation through a FICOLL-PAQUE PLUS™ separation gradient. PBMCs were collected and washed twice using 10 mls PBS and resuspended in 1 ml PBS. PBMCs were counted using a haemocytometer and 1×10^5 PBMCs were centrifuged onto microscope slides using a CYTOSPIN 2™ centrifuge (Shandon) for 5 minutes at 450 rpm. Cells were fixed using 4% (w/v) paraformaldehyde for 20 minutes and permeablised using 0.5% (v/v) Triton-X-100 for 30 minutes. […] These were detected using the appropriate secondary antibodies diluted in 1% (w/v) BSA in PBS for 1 hour at room temperature protected from the light: anti-rabbit AlexaFluor 488 (Invitrogen, 1:1000) and anti-mouse AlexaFluor 546 (Invitrogen, 1:1000). […] Mean nuclear fluorescence for at least 50 nuclei was measured using Image) software (National Institutes of Health, USA) and the data analysed using GraphPad Prism software version 6.0.
The target of assay [6] is T2, ATR. Kind of assay: ATR inhibition in purified PBMCs from human whole blood after DNA damaging agents, immunofluorescence. To be noted: UV or 4-nitroquinoline, 10 μM VE-821.
Experimental: Blood from healthy volunteers was collected by venepuncture into EDTA-coated blood collection tubes. 2×10 ml aliquots of blood was diluted 1:1 in PBS and transferred into 50 ml falcon tubes containing 10 mls FICOLL-PAQUE PLUS™ (GE Healthcare). PBMCs were separated using centrifugation through a FICOLL-PAQUE PLUS™ separation gradient. PBMCs from each tube were collected separately and washed twice with 20 mls PBS before being pooled and resuspended in 20 mls culture medium (RPMI-1640 with 10% FBS). 2 mls of PBMC suspension per treatment were transferred into one well of a 6-well culture dish. […] PBMCs were collected using centrifugation, washed in 1 ml PBS then resuspended in 1 ml PBS before being counted using a haemocytometer. 1×10^5 PBMCs were centrifuged onto microscope slides using a CYTOSPIN 2™ centrifuge (Shandon) for 5 minutes at 450 rpm. […] These were detected using the appropriate secondary antibodies diluted in 1% (w/v) BSA in PBS for 1 hour at room temperature protected from the light: anti-rabbit AlexaFluor 488 (Invitrogen, 1:1000) and anti-mouse AlexaFluor 546 (Invitrogen, 1:1000). […] Mean nuclear fluorescence for at least 50 nuclei was measured using ImageJ software (National Institutes of Health, USA) and the data analysed using GraphPad Prism software version 6.0.
The subject of assay [7] is pChk1^Ser345 in MCF7 cells. Kind of assay: 4-nitroquinoline induced phosphorylation of Chk1 in MCF7 cells over time, immunofluorescence. The note with it: Homo sapiens, 2.5 μM 4-nitroquinoline, 10 μM VE-821, for up to 3 hr. How it is done: (§2) Coverslips were sterilised in methanol and placed in the bottom of a 6-well culture dish. 2×10^5 MCF7 cells were seeded into each well of a 6-well culture dish in culture medium (RPMI-1640 with 10% FBS and 1% penicillin and streptomycin) and allowed to adhere for 24 hours. […] Cells were incubated at 37° C. for 0.5, 1 and 3 hours at which points they were washed with 2 mls PBS and fixed. Cells were fixed using 4% (w/v) paraformaldehyde for 20 minutes at room temperature and permeablised using 0.5% (v/v) Triton-X-100 for 30 minutes at room temperature. […] These were detected using the appropriate secondary antibodies diluted in 1% (w/v) BSA in PBS for 1 hour at room temperature protected from light: anti-rabbit AlexaFluor 546 (Invitrogen, 1:1000) or anti-mouse AlexaFluor 546 (Invitrogen, 1:1000). Coverslips were washed three times for 10 minutes in PBS after incubation with each antibody. DNA was stained using […] with DAPI (Vector Laboratories). Images were captured using a Zeiss LSM 700 confocal microscope (Zeiss) with Zen 2009 software (Zeiss) using and ×40 lens and wavelengths of 405 nm and 561 nm. Mean nuclear fluorescence for at least 50 nuclei was measured using Image) software (National Institutes of Health, USA) and the data analysed using GraphPad Prism software version 6.0.

Assay [8] deals with γH2AX in MCF7 cells. Description: 4-nitroquinoline induced phosphorylation of H2AX in MCF7 cells over time, immunofluorescence. The note with it: Homo sapiens, 2.5 μM 4-nitroquinoline. The procedure:
as §2

Assay [9] concerns pChk1^Ser345 and γH2AX in MCF7 cells. Description: Evaluation of optimal 4-nitroquinoline concentration in MCF7 cells, immunofluorescence. To be noted: 0.1-10 μM 4-nitroquinoline, 2 hours. The procedure:
Coverslips were sterilised in methanol and placed in the bottom of a 6-well culture dish. 2×10^5 MCF7 cells were seeded into each well of a 6-well culture dish in culture medium (RPMI-1640 with 10% FBS and 1% penicillin and streptomycin) and allowed to adhere for 24 hours. Medium was replaced by fresh medium containing 4-nitroquinoline (0.1-10 μM) and incubated at 37° C. for 2 hours. Cells were washed in PBS, fixed using 4% (w/v) paraformaldehyde for 20 minutes at room temperature and permeablised using 0.5% (v/v) Triton-X-100 for 30 minutes at room temperature. Permeablised cells were blocked using 10% (v/v) goat serum and 5% (w/v) BSA in PBS for 1 hour, the coverslips removed and subjected to immunofluorescent analysis using primary antibodies diluted in 1% (w/v) BSA in PBS overnight at 4° C.: rabbit anti-pChk1^Ser345 (133D3, Cell Signaling Technology, 1:300) and mouse anti-phospho-Histone H2AX^Ser139 (JBW301, Millipore, 1:1000). These were detected using the appropriate secondary antibodies diluted in 1% (w/v) BSA in PBS for 1 hour at room temperature protected from light: anti-rabbit AlexaFluor 546 (Invitrogen, 1:1000) and anti-mouse AlexaFluor 546 (Invitrogen, 1:1000). […] Mean nuclear fluorescence for at least 50 nuclei was measured using Image) software (National Institutes of Health, USA) and the data analysed using GraphPad Prism software version 6.0.

Assay [10] relates to ATR-dependent phosphorylation events. Description: 4-nitroquinoline induction of ATR-dependent phosphorylation events in cell lines and isolated PBMCs. The procedure:
PBMCs were purified from fresh whole human blood using FICOLL-PAQUE™ density gradient centrifugation. Cells were counted and seeded at 5×10(5) per well in a round bottom 96 well plate in RPMI medium supplemented with 10% foetal calf serum (FCS) and penicillin/streptomycin/glutamine (PSQ). […] Washed cells were then fixed with 4% paraformaldehyde for 10 min, permeabilised with 0.5% Triton X-100 for 10 min and analysed for Histone H2AX S139 phosphorylation by flow cytometry on the using 1:200 diluted anti-γH2AX primary antibody clone JBW301 (Millipore), 1:500 goat anti-mouse Alexa Fluor488 (Invitrogen) and propidium iodide DNA staining.
Blood from healthy volunteers was collected by venepuncture into EDTA-coated blood collection tubes. […] PBMCs were collected using centrifugation, washed in 1 ml PBS then resuspended in 1 ml PBS before being counted using a haemocytometer. […] These were detected using the appropriate secondary antibodies diluted in 1% (w/v) BSA in PBS for 1 hour at room temperature protected from the light: anti-rabbit AlexaFluor 488 (Invitrogen, 1:1000) and anti-mouse AlexaFluor 546 (Invitrogen, 1:1000). […] Mean nuclear fluorescence for at least 50 nuclei was measured using ImageJ software (National Institutes of Health, USA) and the data analysed using GraphPad Prism software version 6.0. […]

In assay [11] the test system is pChk1^Ser345 and γH2AX in PBMCs. Kind of assay: Evaluation of optimal 4-nitroquinoline concentration in PBMCs from treated human whole blood, immunofluorescence. To be noted: 240 μM 4-nitroquinoline, 2 hours. How it is done: Blood from healthy volunteers was collected by venepuncture into EDTA-coated blood collection tubes. 2 mls of blood per treatment was transferred into 1 well of a 6-well plates already containing 2 mls PBS containing 2% (v/v) FBS and DMSO or 4-nitroquinoline (60, 120, 240, 480 μM final concentration). Following 2 hours incubation at 37° C. the blood mixture was transferred into 15 ml falcon tubes containing 2 mls FICOLL-PAQUE PLUS™ and the PBMCs separated using centrifugation through a FICOLL-PAQUE PLUS™ separation gradient. PBMCs were collected and washed twice using 10 mls PBS and resuspended in 1 ml PBS. PBMCs were counted using a haemocytometer and 1×10^5 PBMCs were centrifuged onto microscope slides using a CYTOSPIN 2™ centrifuge (Shandon) for 5 minutes at 450 rpm. Cells were fixed using 4% (w/v) paraformaldehyde for 20 minutes and permeablised using 0.5% (v/v) Triton-X-100 for 30 minutes. […] These were detected using the appropriate secondary antibodies diluted in 1% (w/v) BSA in PBS: anti-rabbit AlexaFluor 546 (Invitrogen, 1:1000) and anti-mouse AlexaFluor 546 (Invitrogen, 1:1000). […] Mean nuclear fluorescence for at least 50 nuclei was measured using Image) software (National Institutes of Health, USA) and the data analysed using GraphPad Prism software version 6.0.

T2 sequence (Q13535 whole entry): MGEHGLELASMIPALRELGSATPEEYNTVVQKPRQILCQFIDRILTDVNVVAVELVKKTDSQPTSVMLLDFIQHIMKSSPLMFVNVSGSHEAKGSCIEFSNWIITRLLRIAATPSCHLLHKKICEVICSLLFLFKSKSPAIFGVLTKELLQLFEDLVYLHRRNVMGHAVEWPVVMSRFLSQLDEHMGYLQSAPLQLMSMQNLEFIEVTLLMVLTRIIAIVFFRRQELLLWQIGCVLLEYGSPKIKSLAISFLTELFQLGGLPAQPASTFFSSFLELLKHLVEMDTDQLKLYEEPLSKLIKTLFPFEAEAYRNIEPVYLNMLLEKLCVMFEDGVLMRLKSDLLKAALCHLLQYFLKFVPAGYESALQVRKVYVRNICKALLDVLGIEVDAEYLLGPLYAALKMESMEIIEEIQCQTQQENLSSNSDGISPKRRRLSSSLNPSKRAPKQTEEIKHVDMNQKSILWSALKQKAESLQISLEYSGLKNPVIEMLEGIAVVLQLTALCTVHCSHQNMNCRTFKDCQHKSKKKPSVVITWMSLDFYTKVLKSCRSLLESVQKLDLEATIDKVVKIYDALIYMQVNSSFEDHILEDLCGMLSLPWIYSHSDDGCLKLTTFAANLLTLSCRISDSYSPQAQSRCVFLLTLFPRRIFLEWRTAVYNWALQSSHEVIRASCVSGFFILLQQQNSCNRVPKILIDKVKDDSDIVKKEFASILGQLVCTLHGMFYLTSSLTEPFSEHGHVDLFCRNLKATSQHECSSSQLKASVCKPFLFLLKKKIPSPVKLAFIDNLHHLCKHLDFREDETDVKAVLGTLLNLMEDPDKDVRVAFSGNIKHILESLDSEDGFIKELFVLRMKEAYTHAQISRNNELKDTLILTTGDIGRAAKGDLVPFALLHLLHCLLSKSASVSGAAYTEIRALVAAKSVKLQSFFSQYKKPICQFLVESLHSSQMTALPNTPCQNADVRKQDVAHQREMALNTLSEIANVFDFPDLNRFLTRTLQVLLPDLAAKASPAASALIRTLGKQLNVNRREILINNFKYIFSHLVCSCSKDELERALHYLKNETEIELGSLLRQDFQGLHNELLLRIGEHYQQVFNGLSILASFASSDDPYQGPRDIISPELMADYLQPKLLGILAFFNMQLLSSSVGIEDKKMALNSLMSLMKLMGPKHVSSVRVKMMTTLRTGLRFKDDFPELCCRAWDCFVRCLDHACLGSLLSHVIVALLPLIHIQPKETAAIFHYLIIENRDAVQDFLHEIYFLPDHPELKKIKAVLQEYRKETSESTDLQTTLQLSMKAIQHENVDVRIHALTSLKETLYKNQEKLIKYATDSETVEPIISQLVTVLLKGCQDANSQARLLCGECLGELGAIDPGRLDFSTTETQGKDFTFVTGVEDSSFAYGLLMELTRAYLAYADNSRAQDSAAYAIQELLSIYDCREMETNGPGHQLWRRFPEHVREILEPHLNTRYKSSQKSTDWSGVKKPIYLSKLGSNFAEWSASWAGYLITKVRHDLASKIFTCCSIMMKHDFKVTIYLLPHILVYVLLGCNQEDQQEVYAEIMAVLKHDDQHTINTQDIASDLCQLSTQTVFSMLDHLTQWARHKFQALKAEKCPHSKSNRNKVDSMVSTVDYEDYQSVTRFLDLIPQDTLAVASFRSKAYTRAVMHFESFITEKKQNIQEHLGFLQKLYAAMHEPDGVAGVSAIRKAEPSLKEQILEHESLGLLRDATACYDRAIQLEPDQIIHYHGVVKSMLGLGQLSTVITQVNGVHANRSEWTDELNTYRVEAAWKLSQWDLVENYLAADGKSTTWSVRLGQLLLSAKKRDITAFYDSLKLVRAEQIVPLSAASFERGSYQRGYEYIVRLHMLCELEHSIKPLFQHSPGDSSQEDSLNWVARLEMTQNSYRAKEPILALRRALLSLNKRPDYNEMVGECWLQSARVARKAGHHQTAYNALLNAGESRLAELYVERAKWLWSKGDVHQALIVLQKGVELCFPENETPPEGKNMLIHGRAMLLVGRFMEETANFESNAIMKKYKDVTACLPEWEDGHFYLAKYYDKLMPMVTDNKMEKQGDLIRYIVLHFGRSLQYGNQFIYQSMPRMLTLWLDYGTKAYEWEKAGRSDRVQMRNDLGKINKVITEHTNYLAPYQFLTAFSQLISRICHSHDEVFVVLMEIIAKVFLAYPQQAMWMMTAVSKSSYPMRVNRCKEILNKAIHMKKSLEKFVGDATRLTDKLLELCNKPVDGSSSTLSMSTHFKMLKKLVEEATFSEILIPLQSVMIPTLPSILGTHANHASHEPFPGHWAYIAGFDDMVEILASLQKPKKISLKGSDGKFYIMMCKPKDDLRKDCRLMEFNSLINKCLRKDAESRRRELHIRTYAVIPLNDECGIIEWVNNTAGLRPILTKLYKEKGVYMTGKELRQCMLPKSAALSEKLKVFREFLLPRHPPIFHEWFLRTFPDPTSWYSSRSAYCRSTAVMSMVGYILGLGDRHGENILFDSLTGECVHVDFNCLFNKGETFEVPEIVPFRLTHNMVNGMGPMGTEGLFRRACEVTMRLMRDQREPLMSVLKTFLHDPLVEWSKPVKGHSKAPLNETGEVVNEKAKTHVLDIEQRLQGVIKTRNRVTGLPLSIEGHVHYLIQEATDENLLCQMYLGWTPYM
T2 sequence (Q8WXE1 whole entry partner): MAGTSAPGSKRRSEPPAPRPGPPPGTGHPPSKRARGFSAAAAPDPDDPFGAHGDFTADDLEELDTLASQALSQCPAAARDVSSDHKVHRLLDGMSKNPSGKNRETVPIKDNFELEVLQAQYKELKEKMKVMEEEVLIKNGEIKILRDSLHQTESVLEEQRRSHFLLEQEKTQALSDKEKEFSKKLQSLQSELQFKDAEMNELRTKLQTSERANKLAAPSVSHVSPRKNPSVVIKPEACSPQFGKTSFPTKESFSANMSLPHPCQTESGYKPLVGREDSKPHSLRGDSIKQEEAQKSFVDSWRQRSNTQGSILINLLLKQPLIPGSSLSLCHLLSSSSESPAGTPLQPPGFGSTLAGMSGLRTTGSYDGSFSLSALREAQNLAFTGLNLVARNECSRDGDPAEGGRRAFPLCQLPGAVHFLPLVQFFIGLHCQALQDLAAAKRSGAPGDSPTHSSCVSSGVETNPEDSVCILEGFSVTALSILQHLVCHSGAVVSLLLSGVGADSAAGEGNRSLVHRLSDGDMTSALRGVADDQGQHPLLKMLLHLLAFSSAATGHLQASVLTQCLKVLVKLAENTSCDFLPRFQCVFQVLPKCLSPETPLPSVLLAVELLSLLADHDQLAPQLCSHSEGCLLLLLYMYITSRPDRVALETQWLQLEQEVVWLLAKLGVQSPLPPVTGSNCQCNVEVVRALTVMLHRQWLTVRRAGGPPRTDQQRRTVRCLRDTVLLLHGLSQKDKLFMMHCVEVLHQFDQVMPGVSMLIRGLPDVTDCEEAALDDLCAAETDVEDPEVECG

In turn, `CNCc1ccc(-c2cc(-c3nc(-c4ccc(S(=O)(=O)C(C)C)cc4)cnc3N)on2)cc1` [VE-822] showed an IC50 in [1] of 1000 nM. Besides, the “inhibition of 4-nitroquinoline-induced increases in γH2AX” value in assay [2] was “inhibited by VE-822 in a concentration-dependent manner”.

Take `CS(=O)(=O)c1ccc(-c2cnc(N)c(C(=O)Nc3ccccc3)n2)cc1` [VE-821]: the “inhibition of γH2AX” value in [3] (at 0.5 hr) is reported as 80%; in [3] (at 3 hr), < 20%. In addition, the “inhibition (of UV-induced Chk1 phosphorylation)” value in [4] (at 0.5 hr) is recorded as 70%; in [4] (at 3 hr) it was 55%. The “inhibition of UV-induced pChk1^Ser345” value in assay [5] is “significant inhibition”. Besides, the “inhibition of UV-induced γH2AX” value in assay [5] is on record as “significant inhibition”. Also, in [6], the “level of pChk1^Ser345 signal after co-administering compound” value is listed as “reduction”. Besides, the “level of γH2AX signal after co-administering compound” value in assay [6] is listed as “reduction”. In addition, the inhibition at 10 µM was > 70% in assay [7]; 70% in assay [8] (10 μM VE-821, at 1 hr); 40% in [8] (10 μM VE-821, at 3 hr).

Turning to `O=[N+]([O-])c1ccnc2ccccc12` [4-nitroquinoline], the “concentration required for pChk1^Ser345 and γH2AX induction compared with whole blood” value in assay [9] is “lower concentrations were required”. Also, the “concentration adequate to induce ATR-dependent phosphorylation events” value in [10] was ≤ 5 µM. For the same molecule, in assay [11], the “phosphorylation of pChk1^Ser345 and γH2AX (biomarker induction)” value is “improved phosphorylation”.

The IC50 is the midpoint of a concentration-inhibition curve. A low value points to higher potency. For orientation: inhibition means the relative decrease from the control value, in per cent. Low values mean a response near the control, high ones a response far below the control.
